Data reported in article PMC6658616, “Novel Peptide Conjugates of Modified Oligonucleotides for Inhibition of Bacterial RNase P” (Frontiers in Pharmacology, 2019).

Test system: E. coli RNase P (M1 RNA + C5 protein)
Assay: Inhibition of RNase P hydrolysis of fluorescent RNA target by inhibiting oligonucleotides
Assay type: biochemical, Escherichia coli
Conditions: 5 nM M1 RNA, 50 nM C5 protein, 100 nM fluorescent RNA target, 0-125 nM inhibiting oligonucleotide, 10 mM Tris-HCl pH 7.5, 10 mM MgCl2, 100 mM NH4Cl, 37°C; fluorescence read-out; mean ± SD from two independent experiments

Substance: r-inh: native oligoribonucleotide 5’-r(CAAGCAGCCUACCC), complementary to nucleotides 291–304 in the P15-loop of E. coli M1 RNA (RNA, backbone not given here)
- IC50: 0.012 ± 0.004 µM

Substance: d-inh: oligodeoxyribonucleotide 5’-d(CAAGCAGCCTACCC) (DNA, backbone not given here)
- IC50: 0.27 ± 0.09 µM
